Experimental data published in US7253197B2, “Aminothiazole derivatives” (Hoffmann-La Roche Inc., priority 2002, dated 2007).

Molecular target: T1, recombinant mouse NPY5-receptor (mNPY5) (Mus musculus, UniProt O70342)
T1 construct: The full-length cDNA encoding the mouse NPY5 (mNPY5) receptor was amplified from mouse brain cDNA; expressed in transfected cells; membrane preparation
T1 sequence (O70342 1-466): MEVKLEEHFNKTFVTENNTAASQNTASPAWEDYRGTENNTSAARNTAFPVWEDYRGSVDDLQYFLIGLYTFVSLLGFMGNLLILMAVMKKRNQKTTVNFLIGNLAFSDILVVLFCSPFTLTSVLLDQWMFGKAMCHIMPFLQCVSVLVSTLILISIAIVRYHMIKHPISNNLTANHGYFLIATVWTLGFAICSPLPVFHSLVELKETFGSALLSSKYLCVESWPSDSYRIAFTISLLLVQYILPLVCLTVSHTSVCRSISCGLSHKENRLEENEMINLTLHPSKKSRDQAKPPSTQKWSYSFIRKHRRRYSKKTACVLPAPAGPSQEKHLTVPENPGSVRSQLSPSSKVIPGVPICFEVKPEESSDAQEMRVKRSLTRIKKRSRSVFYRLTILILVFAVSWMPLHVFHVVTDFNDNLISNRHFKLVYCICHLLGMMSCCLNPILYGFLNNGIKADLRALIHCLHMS
Assay: Radioligand competition binding
Conditions: HEK293 membranes expressing mNPY5; displacement of 100 pM [125I]labeled PYY; 1 h at 22° C.; read-out: NPY5-R (mouse) IC50
From the text: The full-length cDNA encoding the mouse NPY5 (mNPY5) receptor was amplified from mouse brain cDNA using specific primers, designed based on the published sequence, and Pfu DNA-Polymerase. The amplification product was subcloned into the mammalian expression vector pcDNA3 using Eco RI and XhoI restriction sites. Positive clones were sequenced and one clone, encoding the published sequence was selected for generation of stable cell clones. The sequence is published in Borowsky B., et al., “Molecular Biology and Pharmacology of Multiple NPY Y5 Receptor Species Homologs”, Regul. Pept. 75-76:45-53 (1998).
Human embryonic kidney 293 (HEK293) cells were transfected with 10 μg mNPY5 DNA using the lipofectamine reagent. Two days after transfection, geneticin selection (1 mg/ml) was initiated and several stable clones were isolated. One clone was further used for pharmacological characterization.
Human embryonic kidney 293 cells (HEK293), expressing recombinant mouse NPY5-receptor (mNPY5) were broken by three freeze/thawing cycles in hypotonic Tris buffer (5 mM, pH 7.4, 1 mM MgCl2), homogenized and centrifuged at 72,000×g for 15 min. The pellet was washed twice with 75 mM Tris buffer, pH 7.4, containing 25 mM MgCl2 and 250 mM sucrose, 0.1 mM phenylmethylsulfonylfluoride and 0.1 mM 1,10-pheneanthrolin, resuspended in the same buffer and stored in aliquots at −80° C. Protein was determined according to the method of Lowry using bovine serum albumine (BSA) as a standard. […]

Row | SMILES | IC50
1 | CC(=O)c1cccc(Nc2ncc(C(=O)c3ccccc3C)s2)c1 [Example 61, 1-{3-[5-(2-Methyl-benzoyl)-thiazol-2-ylamino]-phenyl}-ethanone] | 86 nM
2 | N#Cc1cccc(Nc2ncc(C(=O)c3ccc(F)cc3)s2)c1 [Example 8, 3-[5-(4-Fluoro-benzoyl)-thiazol-2-ylamino]-benzonitrile] | 66 nM
3 | O=C(c1cnc(Nc2cccc(C(F)(F)F)c2)s1)c1ccccc1Cl [Example 29, (2-Chloro-phenyl)-[2-(3-trifluoromethyl-phenylamino)-thiazol-5-yl]-methanone] | 8 nM
